We go through four compounds from PMC7734006 (Cancer Science, 2020).

Data set [1] is described as follows: Plasma alectinib pharmacokinetics. Type of data set: in vivo, human.
The test system of data set [2] is relapsed or refractory ALCL. As to conditions: 6 of 17 patients; cited from earlier work.
Data set [3] deals with relapsed or refractory ALCL. Particulars: 36 pediatric patients treated weekly; cited from earlier work.
The subject of data set [4] is relapsed or refractory systemic ALCL. As to conditions: cited from earlier work.
The mark [5] stands for this setting: patients who achieved CR with BV.

As for `CCc1cc2c(cc1N1CCC(N3CCOCC3)CC1)C(C)(C)c1[nH]c3cc(C#N)ccc3c1C2=O` [alectinib], the “Time to steady-state peak concentration (median)” value in data set [1] (cohort A: younger than 15 years, 300 mg/d) was found to be 4 h; in data set [1] (cohort B: younger than 15 years, 600 mg/d), 5 h; in data set [1] (cohort C: 15 years or older, 600 mg/d), 4 h. Also, the “Peak concentration of alectinib” value in data set [1] (the patient who died following disease progression after the first course (cohort C)) is 16.97 mg/mL.
Consider `C#CCC(Cc1cnc2nc(N)nc(N)c2n1)c1ccc(C(=O)N[C@@H](CCC(=O)O)C(=O)O)cc1` (stereo partly shown) [pralatrexate], for which the Objective response rate in data set [2] is listed as 35%.
As to `CC[C@]1(O)C[C@@H]2CN(CCc3c([nH]c4ccccc34)[C@@](C(=O)OC)(c3cc4c(cc3OC)N(C)[C@H]3[C@@](O)(C(=O)OC)[C@H](OC(C)=O)[C@]5(CC)C=CCN6CC[C@]43[C@@H]65)C2)C1` [vinblastine], in data set [3], the “5-year EFS rate” value is given as 30% and the CR rate is 83%.
On to “BV: anti-CD30 Ab drug conjugated to the microtubule-disrupting agent, monomethyl auristatin E”, for which the CR rate in data set [4] (33 of 58 patients) is listed as 57%. For the same compound, in data set [4] (50 of 58 patients), the Objective response rate was 86%. Moreover, in data set [4], the “Patients without recurrence with no treatment after a BV treatment regime” value was “approximately 15%” and the “Peripheral neuropathies, patients” value was 41%. For the same compound, in data set [4] (setting [5]), the “5-year OS” value was 79% and the “5-year PFS” value is 57%.
